The record followed here is PubChem BioAssay AID1259411 (Chemical Carcinogenesis Research Information System (CCRIS), 2018).

This data set relates to rodent carcinogenicity bioassays, tumor incidence. Description: CCRIS carcinogenicity studies. In a few lines:
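Archive of carcinogenicity, mutagenicity, tumor promotion and tumor inhibition results drawn from journals, NCI reports and other sources, expert-reviewed; covers 1985-2011 and is no longer updated.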

The source made the active and inactive calls. No rule for the calls is given here.

For `O`, the carcinogen call was “inactive; negative” (Species: MOUSE, Strain/Sex: B6C3F1/FEMALE, Route: ORAL, Dose: 0, 0.5, 2% IN DIET FOR 96 WK FOLLOWED BY CONTROL DIET FOR 8 WK (STUDY DURATION: 104 WK), Dose: 0, 0.5, 2% IN DIET FOR 96 WK FOLLOWED BY CONTROL DIET FOR 8 WK (STUDY DURATION: 104 WK)); “inactive; negative” (Species: MOUSE, Strain/Sex: B6C3F1/FEMALE, Route: ORAL, Dose: 0, 500, 1250, 2500 PPM IN DRINKING WATER (APPROXIMATELY 0; 40; 90; 200 MG/KG BW) FOR 104 WK (STUDY DURATION: 105 WK), Dose: 0, 500, 1250, 2500 PPM IN DRINKING WATER (APPROXIMATELY 0; 40; 90; 200 MG/KG BW) FOR 104 WK (STUDY DURATION: 105 WK)); “inactive; negative” (Species: MOUSE, Strain/Sex: B6C3F1/MALE, Route: ORAL, Dose: 0, 0.5, 2% IN DIET FOR 96 WK FOLLOWED BY CONTROL DIET FOR 8 WK (STUDY DURATION: 104 WK), Dose: 0, 0.5, 2% IN DIET FOR 96 WK FOLLOWED BY CONTROL DIET FOR 8 WK (STUDY DURATION: 104 WK)); “inactive; negative” (Species: MOUSE, Strain/Sex: B6C3F1/MALE, Route: ORAL, Dose: 0, 500, 1250, 2500 PPM IN DRINKING WATER (APPROXIMATELY 0; 30; 75; 160 MG/KG BW) FOR 103 WK (STUDY DURATION: 103 WK), Dose: 0, 500, 1250, 2500 PPM IN DRINKING WATER (APPROXIMATELY 0; 30; 75; 160 MG/KG BW) FOR 103 WK (STUDY DURATION: 103 WK)); “inactive; negative” (Species: RAT, Strain/Sex: F344/FEMALE, Route: ORAL, Dose: 0, 500, 1250, 2500 PPM IN DRINKING WATER (APPROXIMATELY 0; 15; 45; 75 MG/KG BW) FOR 105 WK (STUDY DURATION: 106 WK), Dose: 0, 500, 1250, 2500 PPM IN DRINKING WATER (APPROXIMATELY 0; 15; 45; 75 MG/KG BW) FOR 105 WK (STUDY DURATION: 106 WK)); “inactive; negative” (Species: RAT, Strain/Sex: F344/MALE, Route: ORAL, Dose: 0, 500, 1250, 2500 PPM IN DRINKING WATER (APPROXIMATELY 0; 15; 30; 60 MG/KG BW) FOR 104 WK (STUDY DURATION: 105 WK), Dose: 0, 500, 1250, 2500 PPM IN DRINKING WATER (APPROXIMATELY 0; 15; 30; 60 MG/KG BW) FOR 104 WK (STUDY DURATION: 105 WK)). The carcinogen call by setting is: (Species: RAT, Strain/Sex: WISTAR/MALE, Route: INHALATION, Dose: 0, 10 MG/M3 OF RESPIRABLE DUST 7 HR/D 5 D/WK FOR 224 DAYS DURING A PERIOD OF 12 MO (STUDY DURATION: 29 MO), Tumor Site: Type of Lesion: LUNG: ADENOMA OR CARCINOMA) “active; positive”; (Species: RAT, Strain/Sex: WISTAR/MALE, Route: INTRAPERITONEAL, Dose: 0, 25 MG OF DUST SUSPENDED IN 2 ML PHOSPHATE BUFFERED SALINE (STUDY DURATION: >418 D), Tumor Site: Type of Lesion: LUNG: MESOTHELIOMA) “active; positive”.
With `O=[N+]([O-])c1ccc(-c2ccccc2)cc1`, the carcinogen call runs as follows: (Species: DOG, Strain/Sex: MONGREL/FEMALE, Route: ORAL, Dose: 300 MG 3/WK FOR LIFE, Tumor Site: Type of Lesion: URINARY BLADDER: EPITHELIAL CARCINOMA) “active; positive”; (Species: RAT, Strain/Sex: SPRAGUE-DAWLEY/FEMALE, Route: SUBCUTANEOUS, Dose: 0, 50, 100 UMOL/KG IN DMSO 1/WK FOR 8 WK (STUDY DURATION: 62 WK), Dose: 0, 50, 100 UMOL/KG IN DMSO 1/WK FOR 8 WK (STUDY DURATION: 62 WK)) “inactive; negative”; (Species: RAT, Strain/Sex: SPRAGUE-DAWLEY/MALE, Route: SUBCUTANEOUS, Dose: 0, 50, 100 UMOL/KG IN DMSO 1/WK FOR 8 WK (STUDY DURATION: 62 WK), Dose: 0, 50, 100 UMOL/KG IN DMSO 1/WK FOR 8 WK (STUDY DURATION: 62 WK)) “inactive; negative”.
Turning to `COc1ccc(N)c(C)c1`, the carcinogen call (Species: MOUSE, Strain/Sex: B6C3F1/FEMALE, Route: GAVAGE, Dose: 0, 0.06, 0.11 G/KG (FOR 53 WK), Dose: 0, 0.06, 0.11 G/KG (FOR 53 WK)) was “inactive; negative”; the carcinogen call (Species: RAT, Strain/Sex: F344/FEMALE, Route: GAVAGE, Dose: 0, 0.08, 0.16 G/KG, Dose: 0, 0.08, 0.16 G/KG, Tumor Site: Type of Lesion: URINARY BLADDER: TRANSITIONAL CELL CARCINOMA) was “active; positive”; the carcinogen call (Species: RAT, Strain/Sex: F344/MALE, Route: GAVAGE, Dose: 0, 0.08, 0.16 G/KG, Dose: 0, 0.08, 0.16 G/KG, Tumor Site: Type of Lesion: URINARY BLADDER: TRANSITIONAL CELL CARCINOMA) is “active; positive”.
As for `CC1(C)C(C(=O)OC(C#N)c2cccc(Oc3ccccc3)c2)C1(C)C` (centres undefined), the carcinogen call was “inactive; negative” (Species: Mouse, Strain/Sex: CD-1/Female (52/Group), Dose: 0, 40, 150, 600 ppm of 91.4 - 92.5 % fenpropathrin in diet for 2 yr, study duration 2 yr, Dose: 0, 40, 150, 600 ppm of 91.4 - 92.5 % fenpropathrin in diet for 2 yr, study duration 2 yr); “inactive; negative” (Species: Mouse, Strain/Sex: CD-1/Male (52/Group), Dose: 0, 40, 150, 600 ppm of 91.4 - 92.5 % fenpropathrin in diet for 2 yr, study duration 2 yr, Dose: 0, 40, 150, 600 ppm of 91.4 - 92.5 % fenpropathrin in diet for 2 yr, study duration 2 yr); “inactive; negative” (Species: Rat, Strain/Sex: CD/Female (50/Group), Route: Oral, Dose: 0, 50, 150, 450 ppm of 91.4-92.5% fenpropathrin in diet for >52 wk, study duration up to 2 yr, Dose: 0, 50, 150, 450 ppm of 91.4-92.5% fenpropathrin in diet for >52 wk, study duration up to 2 yr); “inactive; negative” (Species: Rat, Strain/Sex: CD/Male (50/Group), Route: Oral, Dose: 0, 50, 150, 450 ppm of 91.4-92.5% fenpropathrin in diet for >52 wk, study duration up to 2 yr, Dose: 0, 50, 150, 450 ppm of 91.4-92.5% fenpropathrin in diet for >52 wk, study duration up to 2 yr).
As for `CCNC(=O)[C@@H]1CCCN1C(=O)[C@H](CCCN=C(N)N)NC(=O)[C@H](CC(C)C)NC(=O)[C@@H](COC(C)(C)C)NC(=O)[C@H](Cc1ccc(O)cc1)NC(=O)[C@H](CO)NC(=O)[C@H](Cc1c[nH]c2ccccc12)NC(=O)[C@H](Cc1cnc[nH]1)NC(=O)[C@@H]1CCC(=O)N1`, the carcinogen call reads like this: (Species: RAT, Strain/Sex: WISTAR/FEMALE, Route: SUBCUTANEOUS, Dose: 0, 0.0002, 0.0006, 0.0018 MG/KG 1/D FOR 24 MO (STUDY DURATION: 30 MO), Dose: 0, 0.0002, 0.0006, 0.0018 MG/KG 1/D FOR 24 MO (STUDY DURATION: 30 MO)) “inactive; negative”; (Species: RAT, Strain/Sex: WISTAR/MALE, Route: SUBCUTANEOUS, Dose: 0, 0.0002, 0.0006, 0.0018 MG/KG 1/D FOR 24 MO (STUDY DURATION: 30 MO), Dose: 0, 0.0002, 0.0006, 0.0018 MG/KG 1/D FOR 24 MO (STUDY DURATION: 30 MO)) “inactive; negative”.
Regarding `COc1ccc(-c2ccccc2)cc1NNC(=O)OC(C)C`, the carcinogen call reads like this: (Species: Mouse, Strain/Sex: B6C3F1/Female (50/group), Route: Oral, Dose: 0, 10, 100, 175 ppm in diet for 78 wks, Dose: 0, 10, 100, 175 ppm in diet for 78 wks) “inactive; negative; purity 92.5%”; (Species: Rat, Strain/Sex: Sprague-Dawley/Female (60/group), Route: Oral, Dose: 0, 20, 80, 160 ppm in diet for 104 wks, Dose: 0, 20, 80, 160 ppm in diet for 104 wks) “inactive; negative; purity 92.5%”; (Species: Rat, Strain/Sex: Sprague-Dawley/Male (60/group), Route: Oral, Dose: 0, 20, 80, 200 ppm in diet for 104 wks, Dose: 0, 20, 80, 200 ppm in diet for 104 wks) “inactive; negative; purity 92.5%”.
Take `CCSC(=O)N(CC(C)C)CC(C)C`: the carcinogen call is, setting by setting: (Species: Mouse, Strain/Sex: CD-1/Female (50/sex/group), Route: Oral, Dose: 0, 20, 80, 320 mg/kg/d in diet for 2 yrs, Dose: 0, 20, 80, 320 mg/kg/d in diet for 2 yrs) “inactive; negative; probable purity of 97-98%”; (Species: Mouse, Strain/Sex: CD-1/Male (50/sex/group), Route: Oral, Dose: 0, 20, 80, 320 mg/kg/d in diet for 2 yrs, Dose: 0, 20, 80, 320 mg/kg/d in diet for 2 yrs) “inactive; negative; probable purity of 97-98%”; (Species: Rat, Strain/Sex: Sprague-Dawley/Female (70/sex/group), Route: Oral, Dose: 0, 50, 100, 200, 400 mg/kg/d in diet for 12, 18, or 24 mo, Dose: 0, 50, 100, 200, 400 mg/kg/d in diet for 12, 18, or 24 mo) “inactive; negative; probable purity of 97-98% (there were probably 10 animals in each inte”; (Species: Rat, Strain/Sex: Sprague-Dawley/Male (70/sex/group), Route: Oral, Dose: 0, 50, 100, 200, 400 mg/kg/d in diet for 12, 18, or 24 mo, Dose: 0, 50, 100, 200, 400 mg/kg/d in diet for 12, 18, or 24 mo) “inactive; negative; probable purity of 97-98% (there were probably 10 animals in each inte”.
Consider `CCCOC(N)=O`, for which the carcinogen call (Species: MOUSE, Route: INTRAPERITONEAL, Tumor Site: Type of Lesion: LUNG) was “active; positive”.
In the case of `CC(C)[N+](=O)[O-]`, the carcinogen call (Species: RAT, Route: INHALATION, Tumor Site: Type of Lesion: LIVER) was “active; positive”.
